Assay results as given in patent publication US9006241B2, “Pyrimidine derivatives” (Noviga Research AB, priority 2011, dated 2015).

Assays:
Assay type in all cases: cell-based
[1] = test system: CCRF-CEM cancer cells - leukemia; assay: Fluorometric Microculture Cytotoxicity Assay (FMCA), CCRF-CEM; details: Homo sapiens, 72 h incubation
[2] = test system: CEM/VM1 (teniposide-resistant leukemia); assay: FMCA, CEM/VM1; details: Homo sapiens, CEM/VM1 teniposide-resistant leukemia cells
Description: (§1) The Fluorometric Microculture Cytotoxicity Assay, FMCA (Larsson, R., et al.; Anticancer Res, 1989, 9, 1111-1119), is a three day non-clonogenic microplate-based cell viability assay used for measurement of the cytotoxic and/or cytostatic effect of compounds in vitro (Lindhagen, E. et al.; Nat. Protoc., 2008, 3, 1364-1369). FMCA represents a valuable method to measure cytotoxicity in a number of cell types, both cell lines and primary cells from patients (Larsson, R., et al.; Int. J. Cancer, 1992, 50, 177-185; Fridborg, H., et al.; Eur. J. Cancer, 1999. 35, 424-432; Dhar, S., et al.; Br. J. Cancer, 1996, 74, 888-896).
(§2) FMCA is based on the principle that fluorescein diacetate (FDA) is converted to the fluorescent probe fluorescein by esterases in the plasma membranes of living cells. For experiments, 96 or 384-well microplates are prepared with compounds and stored at −70° C. until use. Cells are then seeded into the drug-prepared plates and placed in an incubator for 72 h. On the last day of incubation, the plates are washed and a buffer containing FDA is added and incubated with the cells for 45 minutes. Finally the fluorescence per well is measured in a fluorometer and a Survival Index % (SI) for each compound-treated well is calculated with the equation: Compound-treated cells minus blank divided by control cells minus blank. A high SI-value indicates a large percentage of living cells and vice versa.
(§3) For dose-response experiments, 384-well plates were prepared as follows:
(§4) Compounds of the invention as well comparative kinase inhibitors sorafenib sunitinib, dasatinib, pazopanib and a reference compound disclosed in WO 2009/071535 (compound #107) were diluted with PBS to a concentration ten-times higher than the desired starting concentration. Then, a Biomek 2000 liquid handling system was employed to serially dilute the compounds in a deep-well 384-well plate. From this plate, assay plates containing 5 μl compound per well were prepared with the Biomek 2000. Certain compounds precipitated when diluted with PBS, and these compounds were therefore prepared in a 96-well plate manually as described above using culture medium RPMI 1640 instead of PBS.
(§5) The compounds were also tested at five concentrations, with five times serial dilution on the following cell types: CCRF-CEM, hTERT-RPE1 (normal retinal epithelial cells), hRPTEpiC (normal renal cells), and peripheral blood mononuclear cells (PBMC). Each experiment was performed three times, except for PBMC and hRPTEpiC, which were performed twice. SI-values were calculated, graphs were plotted using GraphPadPrism 5.0 (GraphPad Software Inc. La Jolla, Calif.) and IC50-values for each cell type and compound were determined from the curves.
(§6) The compounds of the invention were also tested on further cancer cell lines related to breast cancer (MDA-MB-231; see e.g. Cailleau, R., et al.; J. Natl. Cancer Inst., 1974, 53, 661-674), teniposide-resistant leukemia (CEM/VM1 see e.g. Danks, M., et al.; Cancer Res., 1987, 47, 1297-1301), leukemia (HL-60; see e.g. Collins, S., et al.; Nature, 1977, 270, 347-349), doxorubicin-resistant lung cancer (H69AR; see e.g. Mirski, S., et al.; Cancer Res., 1987, 47, 2594-2598), myeloma (RPMI 8226; see e.g. Matsuoka, Y., et al.; Proc. Soc. Exp. Biol. Med., 1967, 125, 1246-1250), doxorubicin-resistant myeloma (8226/Dox40; see e.g. Dalton, W., et al.; Blood, 1989, 15, 747-752), lymphoma (U-937, see e.g. Sundström, C., et al.; Int. J. Cancer, 1976, 17, 565-577), vincristin-resistant lymphoma (U-937-vcr; see e.g. Botling, J., et al.; Int. J. Cancer, 1994, 58, 269-274), ovarian cancer (A2780; see e.g. Hamilton, T., et al.; Semin. Oncol., 1984, 11, 285-298), doxorubicin-resistant ovarian cancer (A2780/Adr), cisplatin-resistant ovarian cancer (A2780/Cis; see e.g. Behrens, B., et al. Cancer Res. 1987, 47, 414-418), pancreatic cancer (PANC-1, BxPC-3, and MIA PaCa-2; see e.g. Lieber, M., et al.; Int. J. Cancer, 1975, 15, 741-747; Loor, R., et al.; Clin. Lab. […]

[3] = test system: H69AR (doxorubicin-resistant lung cancer); assay: FMCA, H69AR; details: Homo sapiens, H69AR doxorubicin-resistant lung cancer cells
Description: as §1, §2, §3, §4, §5, §6

RPMI 8226 (myeloma) = assay: FMCA, RPMI 8226; details: Homo sapiens, RPMI 8226 myeloma cells
Description: as §1, §2, §3, §4, §5, §6

[4] = test system: 8226/Dox40 (doxorubicin-resistant myeloma); assay: FMCA, 8226/Dox40; details: 8226/Dox40 doxorubicin-resistant myeloma cells
Description: as §1, §2, §3, §4, §5, §6

U-937 (lymphoma) = assay: FMCA, U-937; details: Homo sapiens, U-937 lymphoma cells
Description: as §1, §2, §3, §4, §5, §6

[5] = test system: U-937-vcr (vincristin-resistant lymphoma); assay: FMCA, U-937-vcr; details: U-937-vcr vincristin-resistant lymphoma cells
Description: as §1, §2, §3, §4, §5, §6

A2780 (ovarian cancer) = assay: FMCA, A2780; details: Homo sapiens, A2780 ovarian cancer cells
Description: as §1, §2, §3, §4, §5, §6

[6] = test system: A2780/Adr (doxorubicin-resistant ovarian cancer); assay: FMCA, A2780/Adr; details: A2780/Adr doxorubicin-resistant ovarian cancer cells
Description: as §1, §2, §3, §4, §5, §6

[7] = test system: A2780/Cis (cisplatin-resistant ovarian cancer); assay: FMCA, A2780/Cis; details: A2780cis, A2780/Cis cisplatin-resistant ovarian cancer cells
Description: as §1, §2, §3, §4, §5, §6

[8] = test system: MDA-MB-231 (breast cancer); assay: FMCA, MDA-MB-231; details: Homo sapiens, MDA-MB-231 breast cancer cells
Description: as §1, §2, §3, §4, §5
(§7) The compounds of the invention were also tested on further cancer cell lines related to breast cancer (MDA-MB-231; see e.g. Cailleau, R., et al.; J. Natl. Cancer Inst., 1974, 53, 661-674), teniposide-resistant leukemia (CEM/VM1 see e.g. Danks, M., et al.; Cancer Res., 1987, 47, 1297-1301), leukemia (HL-60; see e.g. Collins, S., et al.; Nature, 1977, 270, 347-349), doxorubicin-resistant lung cancer (H69AR; see e.g. Mirski, S., et al.; Cancer Res., 1987, 47, 2594-2598), myeloma (RPMI 8226; see e.g. Matsuoka, Y., et al.; Proc. Soc. Exp. Biol. Med., 1967, 125, 1246-1250), doxorubicin-resistant myeloma (8226/Dox40; see e.g. Dalton, W., et al.; Blood, 1989, 15, 747-752), lymphoma (U-937, see e.g. Sundström, C., et al.; Int. […]

HL-60 (leukemia) = assay: FMCA, HL-60; details: Homo sapiens, HL-60 leukemia cells
Description: as §1, §2, §3, §4, §5, §7

[9] = test system: BxPC-3 (pancreatic cancer); assay: FMCA, BxPC-3; details: Homo sapiens, BxPC-3 pancreatic cancer cells
Description: as §1, §2, §3, §4, §5, §7

[10] = test system: PANC-1 (pancreatic cancer); assay: FMCA, PANC-1; details: Homo sapiens, PANC-1 pancreatic cancer cells
Description: as §1, §2, §3, §4, §5, §7

[11] = test system: MIA PaCa-2 (pancreatic cancer); assay: FMCA, MIA PaCa-2; details: Homo sapiens, MIA PaCa-2 pancreatic cancer cells
Description: as §1, §2, §3, §4, §5, §7

PC-3 (prostate cancer) = assay: FMCA, PC-3; details: PC-3 prostate cancer cells
Description: as §1, §2, §3, §4, §5, §7

EC50 [2] | EC50 [3] | EC50 (RPMI 8226 (myeloma)) | EC50 [4] | EC50 (U-937 (lymphoma)) | EC50 [5] | EC50 (A2780 (ovarian cancer)) | EC50 [6] | EC50 [7] | EC50 [8] | EC50 (HL-60 (leukemia)) | EC50 [9] | EC50 [10] | EC50 [11] | EC50 (PC-3 (prostate cancer)) | Structure (SMILES) | EC50 [1]
51 nM | 200 nM | 210 nM | 280 nM | 73 nM | 44 nM | 110 nM | 440 nM | 63 nM | – | – | – | – | – | – | COc1ccc2[nH]cc(CCNc3nccc(Nc4ccc5[nH]c(C)c(C)c5c4)n3)c2c1 [Example 14, N^4-(2,3-dimethyl-1H-indol-5-yl)-N^2-[2-(5-methoxy-1H-indol-3-yl)ethyl]pyrimidine-2,4-diamine] | 21 nM
17 nM | 94 nM | 42 nM | 160 nM | 22 nM | 20 nM | 51 nM | 180 nM | 33 nM | 57 nM | 8.2 nM | 55 nM | 430 nM | 18 nM | 150 nM | CCOc1ccc2[nH]cc(CCNc3nccc(Nc4ccc5[nH]c(C)cc5c4)n3)c2c1 [Example 5, N^2-[2-(5-ethoxy-1H-indol-3-yl)ethyl]-N^4-(2-methyl-1H-indol-5-yl)pyrimidine-2,4-diamine] | 15 nM
44 nM | 63 nM | 110 nM | 300 nM | 41 nM | 62 nM | 74 nM | 440 nM | 62 nM | – | – | – | – | – | – | COc1ccc2[nH]cc(CCNc3nc(C)cc(Nc4ccc5[nH]c(C)cc5c4)n3)c2c1 [Example 27, N^2-[2-(5-methoxy-1H-indol-3-yl)ethyl]-6-methyl-N^4-(2-methyl-1H-indol-5-yl)pyrimidine-2,4-diamine] | 19 nM
62 nM | 940 nM | 7800 nM | 30000 nM | 100 nM | 780 nM | 130 nM | 2000 nM | 230 nM | 1900 nM | 92 nM | 910 nM | 5200 nM | 31 nM | 2100 nM | COc1ccc2[nH]cc(CCNc3nccc(Nc4ccc5[nH]c(C)nc5c4)n3)c2c1 [Example 19, N^2-[2-(5-methoxy-1H-indol-3-yl)ethyl]-N^4-(2-methyl-1H-benzo[d]imidazol-5-yl)pyrimidine-2,4-diamine] | 32 nM
